Measurements: article PMC3820767, “Turning Defense into Offense: Defensin Mimetics as Novel Antibiotics Targeting Lipid II” (PLoS Pathogens, 2013)
≈ marks a conversion by molar mass, not a printed value. Read-outs that look alike come from different tables or passages of the source.

Tests used:
Jurkat = assay: Cytotoxicity by MTT assay; type: cell-based, human
[1] = Surface Plasmon Resonance binding to immobilized 3-Lipid II; conditions: SPR; for Binding on Lipid II?: Table S3, initial determination at 10 µM; for Kd: immobilized 3-Lipid II
Protocol: Surface Plasmon Resonance binding experiments were carried out on a BIAcore T100 system (BIAcore Inc., Piscataway, NY) at 25°C. The assay buffer was 10 mM HEPES, 150 mM NaCl, 0.05% surfactant P20, pH 7.4 (±3 mM EDTA) supplemented with 10% DMSO. […] For initial determination of binding, defensin mimetics were introduced into the flow-cells (30 µl/min) in the running buffer at 10 µM. Resonance signals were corrected for nonspecific binding by subtracting the background of the control flow-cell. After each analysis, the sensor chip surfaces were regenerated with 50 mM NaOH for 30 s at a flow rate 100 µl/min, and equilibrated with the buffer prior to next injection. For binding kinetics studies, binding isotherms were analyzed with manufacturer-supplied software for BIAcore T100.

[2] = tested on: Staphylococcus aureus ATCC 29213; assay: Antibacterial killing, 96-well turbidimetric (modified vCC) assay; type: cell-based; conditions: for active against S.aureus (IC100%): Table S3, concentration at which 100% killing occurred, no bacterial regrowth, No = not active; for Bacterial Killing S. aureus: concentration resulting in 100% killing after 30 min exposure, modified vCC assay
Protocol: (§1) The antibacterial activity of defensin mimetics against Staphylococcus aureus ATCC 29213 and Escherichia coli 25922 was carried out in a 96-well turbidimetric assay essentially as described previously with the following modifications: bacteria were exposed for 30 min to compounds in 10 mM phosphate buffer containing 5% DMSO prior to addition of 2× Muller-Hinton medium. Bacterial growth was monitored for 12 hours and data were analyzed as described. Determination of MICs was performed by Micromyx, LLC (Kalamazoo, Michigan) according to CLSI standards.

[3] = tested on: Escherichia coli ATCC 25922; assay: as above; type: cell-based; conditions: for active against E.coli (IC100%): Table S3, concentration at which 100% killing occurred, no bacterial regrowth, No = not active; for Bacterial Killing E. coli: concentration resulting in 100% killing after 30 min exposure, modified vCC assay
Protocol: as §1

[4] = tested on: Staphylococcus aureus MMX100-ATCC 29213; assay: Broth microdilution susceptibility testing (CLSI); type: cell-based
Protocol: as §1

[5] = tested on: Escherichia coli MMX102-ATCC 25922; assay: Broth microdilution susceptibility testing (CLSI); type: cell-based
Protocol: as §1

[6] = tested on: Enterococcus faecalis MMX101-ATCC 29212; assay: Broth microdilution susceptibility testing (CLSI); type: cell-based
Protocol: as §1

[7] = tested on: Streptococcus pneumoniae MMX1195-ATCC 49619; assay: Broth microdilution susceptibility testing (CLSI); type: cell-based
Protocol: as §1

[8] = tested on: Staphylococcus aureus (MRSA) MMX757; assay: Broth microdilution susceptibility testing (CLSI); type: cell-based
Protocol: as §1

[9] = tested on: Pseudomonas aeruginosa MMX103-ATCC 27853; assay: Broth microdilution susceptibility testing (CLSI); type: cell-based
Protocol: as §1

[10] = tested on: Enterococcus faecalis (VRE) MMX848; assay: Broth microdilution susceptibility testing (CLSI); type: cell-based
Protocol: as §1

[11] = tested on: Streptococcus pneumonia (PRSP) MMX884; assay: Broth microdilution susceptibility testing (CLSI); type: cell-based, Streptococcus pneumoniae
Protocol: as §1

Caco-2 = assay: Cytotoxicity by MTT assay; type: cell-based, human
[12] = Cytotoxicity by MTT assay; type: cell-based, human; conditions: human, Caco-2 cells; Table S3; No = not cytotoxic; read-out: cytotoxic for Caco II (C50% survival)
[13] = tested on: Staphylococcus aureus ATCC 29213; assay: Antagonization of defensin antibacterial activity by 3-Lipid II; type: cell-based; conditions: 50 µM defensin pre-incubated with 3-Lipid II at 1:1 molar ratio
Protocol: Antagonization of the antibacterial activity of defensins against Staphylococcus aureus ATCC 29213 was carried out in a 96-well turbidimetric assay essentially as described previously. Defensins (50 µM final concentration) were pre-incubated with 3-Lipid II at 1∶1, 1∶2.5 and 1∶5 defensin: Lipid II molar ratios for 30 min at RT. Following incubation, solutions were diluted two-fold in ten steps and bacteria were added. Defensin activity was neutralized by the addition of Mueller Hinton broth. Bacterial growth was monitored for 12 hours and data were analyzed as described.

Row | Compound | IC50 (Jurkat) | Binding on Lipid II? [1] | Kd [1] | active against S.aureus (IC100%) [2] | Bacterial Killing S. aureus [2] | active against E.coli (IC100%) [3] | Bacterial Killing E. coli [3] | MIC Staphylococcus aureus 100-29213 [4] | MIC Escherichia coli 102-25922 [5] | MIC Enterococcus faecalis 101-29212 [6] | MIC Streptococcus pneumoniae 1195-49619 [7] | MIC Staphylococcus aureus (MRSA) 757-NA [8] | MIC Pseudomonas aeruginosa 103-27853 [9] | MIC Enterococcus faecalis (VRE) 848-NA [10] | MIC Streptococcus pneumonia (PRSP) 884-NA [11] | IC50 (Caco-2) | also measured
1 | CN(C)c1ccc(/C=C/c2cc(C(C)(C)C)[o+]c(C(C)(C)C)c2)cc1 [Compound 1493-0289, 2,6-di-tert-butyl-4-[(E)-2-[4-(dimethylamino)phenyl]ethenyl]-1$l^4-pyran-1-ylium] | 41.7 µM | Yes | 4.26 µM | 3,9 µM | 3.9 µM | 125 µM | 125 µM | 1 µg/mL | >8 µg/mL | 2 µg/mL | 16 µg/mL | 2 µg/mL | >8 µg/mL | 4 µg/mL | 16 µg/mL | 6.8 µM | –
2 | Oc1ccccc1Oc1c(F)c(F)c(-c2c(F)c(F)c(Oc3ccccc3O)c(F)c2F)c(F)c1F [Compound 1611-0203, 2-{2,3,5,6-tetrafluoro-4-[2,3,5,6-tetrafluoro-4-(2-hydroxyphenoxy)phenyl]phenoxy}phenol] | – | – | 59.6 µM | 3,9 µM | 3.9 µM | – | >500 µM | 2 µg/mL (≈ 3.89 µM) | >4 µg/mL | 1 µg/mL (≈ 1.94 µM) | >16 µg/mL | 2 µg/mL (≈ 3.89 µM) | >4 µg/mL | 1 µg/mL (≈ 1.94 µM) | >16 µg/mL | – | IC50 (Jurkat; concentration resulting in 50% cell survival, MTT, 4 h, read-out: Cytotoxicity (C50%) Jurkat): 63.4 µM; IC50 (Caco-2; concentration resulting in 50% cell survival, MTT, 24 h, read-out: Cytotoxicity (C50%) Caco-2): 4.2 µM
3 | CC[n+]1c(/C=C2C=C(/C=C/N(C)c3ccccc3)CC(C)(C)C/2)sc2ccccc21 [Compound 4090-1978, 2-{[(1E)-5,5-dimethyl-3-[(E)-2-[methyl(phenyl)amino]ethenyl]cyclohex-2-en-1-ylidene]methyl}-3-ethyl-1,3-benzothiazol-3-ium] | 87.3 µM | No | – | 15,625 µM | 15.6 µM | 62,5 µM | 62.5 µM | 2 µg/mL | 64 µg/mL | 16 µg/mL | >8 µg/mL | 2 µg/mL | >64 µg/mL | 16 µg/mL | >8 µg/mL | 16.7 µM | –
4 | OCC1c2ccccc2-c2ccccc21 [Compound 4121-0081, 9H-fluoren-9-ylmethanol] | – | No | – | No | – | No | – | – | – | – | – | – | – | – | – | – | IC50 [12]: 202 µM
5 | Oc1ccc2ccccc2c1C(c1ccc(Cl)cc1)c1c(O)ccc2ccccc12 [Compound 363003] | 12.7 µM | Yes | 39.5 µM | 3,9 µM | 3.9 µM | No | >500 µM | 1 µg/mL (≈ 2.43 µM) | >32 µg/mL | 1 µg/mL (≈ 2.43 µM) | 8 µg/mL (≈ 19.5 µM) | 1 µg/mL (≈ 2.43 µM) | >32 µg/mL | 1 µg/mL (≈ 2.43 µM) | 16 µg/mL (≈ 38.9 µM) | 3.5 µM | –
6 | CC[n+]1c(/C=C/C=C2C=C(/C=C/N(C)c3ccccc3)CC(C)(C)C/2)sc2ccccc21.[I-] [Compound 5107930, 2-[(1E)-3-[(1E)-5,5-dimethyl-3-[(E)-2-[methyl(phenyl)amino]ethenyl]cyclohex-2-en-1-ylidene]prop-1-en-1-yl]-3-ethyl-1,3-benzothiazol-3-ium iodide] | > 223 µM | Yes | 3.64 µM | – | 23.4 µM | 125 µM | 125 µM | 16 µg/mL | >16 µg/mL | 16 µg/mL | >64 µg/mL | 16 µg/mL | >16 µg/mL | 16 µg/mL | >64 µg/mL | 27.9 µM | –
7 | CC(=O)NC[C@H]1CN(c2ccc(N3CCOCC3)c(F)c2)C(=O)O1 [Linezolid, reference compound] | – | – | – | – | – | – | – | – | – | – | – | – | – | – | – | – | MIC ([4]; Staphylococcus aureus, ATCC29213, read-out: MIC Staphylococcus aureus 100-29213): 4 µg/mL (≈ 11.9 µM); MIC ([5]; Escherichia coli, ATCC25922, read-out: MIC Escherichia coli 102-25922): > 64 µg/mL; MIC ([6]; Enterococcus faecalis, ATCC29212, read-out: MIC Enterococcus faecalis 101-29212): 2 µg/mL (≈ 5.93 µM); MIC ([7]; Streptococcus pneumoniae, ATCC49619, read-out: MIC Streptococcus pneumoniae 1195-49619): 2 µg/mL (≈ 5.93 µM); MIC ([8]; Staphylococcus aureus, MRSA, read-out: MIC Staphylococcus aureus (MRSA) 757-NA): 4 µg/mL (≈ 11.9 µM); MIC ([9]; Pseudomonas aeruginosa, ATCC27853, read-out: MIC Pseudomonas aeruginosa 103-27853): > 64 µg/mL; MIC ([10]; Enterococcus faecalis, VRE, read-out: MIC Enterococcus faecalis (VRE) 848-NA): 2 µg/mL (≈ 5.93 µM); MIC ([11]; Streptococcus pneumoniae, PRSP, read-out: MIC Streptococcus pneumonia (PRSP) 884-NA): 2 µg/mL (≈ 5.93 µM)
8 | HNP-1: chemically synthesized wild-type human alpha-defensin Human Neutrophil peptide-1 | – | – | – | – | – | – | – | – | – | – | – | – | – | – | – | – | antagonization of bactericidal activity by Lipid II [13]: partly antagonized by one order of magnitude
